In patent US10344017B2, “Pyrrolcarboxamide derivatives for the inhibition of ERK5” (CANCER RESEARCH TECHNOLOGY LIMITED, priority 2014, dated 2019):
Like-named read-outs stand apart in the source and are kept apart here.

Assays:
ERK5 = molecular target: T1, ERK5 (Homo sapiens, UniProt Q13164); experiment: ERK5 IMAP assay (fluorescence polarisation); format: biochemical
T1 construct: made in house

[1] = tested on: ERK5 autophosphorylation in HeLa cells; experiment: EGF-stimulated HeLa cell assay (ERK5 autophosphorylation, Western blot); format: cell-based; settings: Homo sapiens, average where more than one data point
Experimental: EGF-Stimulated HeLa Cell Assay
HeLa cells were serum starved overnight followed by treatment with ERK5 inhibitors for 1 hr. Cells were then stimulated with 100 ng/ml EGF for 10 or 15 min. The cells were harvested and lysed at 4° C. for 5-10 min in Laemmli buffer containing Halt protease and […] (Pierce). The lysates were boiled for 10 min at 100° C. Twenty microliters sample was run on 6% or 7.5% Tris-glycine gels and transferred to nitrocellulose. […] The IC50 was calculated from densitometry of top bands.

[2] = tested on: HA-ERK5-ΔP493 (MEK5D-activated, MEF2D-Gal4/Gal4-Luc reporter) in HEK293T cells; experiment: Truncated dual-luciferase reporter assay, HEK293T forward transfection; format: cell-based; settings: Homo sapiens, HEK-293T, average where more than one data point, read-out: Truncated ERK 5 Reporter Assay
Experimental: (§1) Truncated Dual-Luciferase Reporter Assay
(§2) HEK293T and HeLa Forward Transfection
Constitutively-active, EGFP-tagged MEK5 (EGFP-MEK5D; 0.5 μg/μl), an EGFP-tagged construct containing no MEK5D (EGFP-C3; 0.5 μg/μl), and HA-tagged ERK5 with C-terminal truncation (HA-ERK5-ΔP493; 0.51 μg/μl) were diluted separately in sterile distilled water. Plasmid DNA and Lipofectamine 2000 (Invitrogen) were separately diluted in Opti-MEM growth media (reduced serum medium, Invitrogen), and incubated at room temperature for 5 min. Plasmid DNA (Tube A) and Lipofectamine 2000 (Tube B) were then combined and incubated for 20 min at room temperature to complex. Cells were then transfected by addition of 16 μl of the respective transfection mixture: 3 wells with EGFP-C3-containing (control) and 21 wells with MEK5D-containing transfection mixture (final volume, 100 μl). Cells were subsequently incubated for 4 h at 37° prior to addition of potential ERK5-inhibitory compounds.
Addition of Compounds to ERK5-Transfected HEK293T or HeLa Cells
Potential ERK5-inhibitory compounds were prepared as a 2× solution by addition of 2 μl compound (or DMSO as control) to 1 ml standard culture medium. Compounds were tested in triplicate at a concentration range of 0.003 μM, 0.01 μM, 0.03 μM, 0.1 μM, 0.3 μM and 1 μM (or 0.03 μM, 0.1 μM, 0.3 μM, 1 μM, 3 μM and 10 μM for BIX02189) by addition of 100 μl 2× solution to 100 μl transfected cells (final DMSO, 0.1% v/v). Cells were incubated for 24 h at 37° C.
(§3) Cell Lysis and Luciferase Quantification
(§4) After 24 h incubation in the absence (control) or presence of potential inhibitor, the culture medium was aspirated and cells lysed in 20 μl 1× passive lysis buffer (Dual-Luciferase Reporter Assay System, Promega) for a minimum of 15 min with agitation. Lysates were further processed immediately or stored at −80° C. Cellular inhibition of ERK5 was quantified using the Dual-Luciferase Reporter Assay System (Promega). Luciferase assay buffer/Luciferase assay substrate and Stop and Glo assay buffer/Stop and Glo substrate were prepared according to the manufacturer's instructions. Luciferase reagent (50 μl/well) was added immediately before luminescence detection using a FLUOstar Omega plate reader (BMG Labtech). Stop and Glo reagent (50 μl/well) was subsequently added, and the Renilla luciferase signal (transfection efficiency control) quantified.
The ERK5-specific signalling activity was calculated by subtraction of the EGFP-C3 luciferase signal from the EGFP-MEK5D-induced luminescence. Luminescence in the absence of potential ERK5 inhibitor (DMSO control) was taken as 100% ERK5 activity. […] Unless stated otherwise, data are mean±standard deviation of three independent experiments.

[3] = tested on: HA-ERK5-ΔP493 (MEK5D-activated, MEF2D-Gal4/Gal4-Luc reporter) in HeLa cells; experiment: Truncated dual-luciferase reporter assay, HeLa forward transfection; format: cell-based; settings: Homo sapiens, value with spread
Experimental: as §1, §2
HEK293T or HeLa cells were seeded in 96-well luminescence (white) plates (1.68×10^4/well in 84 μl standard culture medium) and incubated overnight at 37° C. in a humidified atmosphere of 5% CO2 in air. Plasmid DNA mastermix containing MEF2D-Gal4 (0.25 μg/μl), Gal4-Luc (1.25 μg/μl) and Renilla luciferase (0.1 μg/μl) was prepared in sterile distilled water. Constitutively-active, EGFP-tagged MEK5 (EGFP-MEK5D; 0.5 μg/μl), an EGFP-tagged construct containing no MEK5D (EGFP-C3; 0.5 μg/μl), and HA-tagged ERK5 with C-terminal truncation (HA-ERK5-ΔP493; 0.51 μg/μl) were diluted separately in sterile distilled water. Plasmid DNA and Lipofectamine 2000 (Invitrogen) were separately diluted in Opti-MEM growth media (reduced serum medium, Invitrogen), and incubated at room temperature for 5 min. Plasmid DNA (Tube A) and Lipofectamine 2000 (Tube B) were then combined and incubated for 20 min at room temperature to complex. […]
as §3
as §4, with “Lysates were further processed immediately or stored at −80° C.” left out, “Luciferase assay buffer/Luciferase assay substrate and Stop and Glo assay buffer/Stop and Glo substrate were prepared according to the manufacturer's instructions.” left out
The ERK5-specific signalling activity was calculated by subtraction of the EGFP-C3 luciferase signal from the EGFP-MEK5D-induced luminescence. Luminescence in the absence of potential ERK5 inhibitor (DMSO control) was taken as 100% ERK5 activity. […]

[4] = tested on: tumour cell lines and endothelial cells; settings: cited from earlier work
[5] = cited from earlier work
[6] = tested on: bFGF-induced angiogenesis; settings: matrigel plug; cited from earlier work
human and murine tumour = settings: cited from earlier work
[7] = tested on: ERK5 (HA-ERK5 wt activated by EGFP-MEK5D, MEF2D-Gal4/Gal4-Luc reporter) in HEK293 cells; experiment: Dual-luciferase reporter assay (ERK5 reporter), reverse-transfected HEK293 cells; settings: Homo sapiens, HEK293, read-out: ERK 5 Reporter Assay
Experimental: Trypsinizing of Adherent Cell Colonies
Cells were regularly passaged in order to maintain optimum colony sizes on plates. In order to do this, and to harvest cells for use in the dual-luciferase reporter assay, adherent cells were lifted from tissue culture dishes. Cell media was removed via aspiration, and the cell monolayer was washed with phosphate buffered saline (PBS) solution (10 mL), which was then aspirated.
Reverse Transfection of HEK293 Cells
Preparation of EGFP Control (C3) Working Solution (for 1×96 Well Plate)
Preparation of HEK293 Cells for Reverse Transfection
Trypsinized HEK293 cells were re-suspended in 19 mL of fresh cell media and counted using haemocytometry. Cells were then diluted with fresh cell media to achieve a final cell concentration of 2×10^5 cells/mL. 1237.5 μL and 7425 μL of this cell media was added to the C3 and 5D working solutions respectively. 100 μL of the transfected cells were then aliquoted into the appropriate wells in a 96-well opaque sided tissue culture plate, and incubated at 37° C. for 6 h.
Addition of Compounds to HEK293 Cells
4 compounds was assayed per 96-well plate. For each compound, 1 mL of growth media was added to eight 1.5 mL Eppendorf® tubes. 6 μL of DMSO was added to two tubes for C3 and blank 5D wells, and 6 μL of the relevant compound stock solution was added to the 6 remaining tubes. […] Solutions of drug in media were thoroughly mixed, and 100 μL of the relevant compound was transferred (in triplicate) to the 96-well plate containing transfected HEK293 cells using an electronic multichannel pipette with variable tip spacing. Sealed plates were incubated at 37° C. for 24 h. Final compound concentrations were as follows; 30 μM, 10 μM, 3 μM, 1 μM and 0.3 μM.
15 mL of 1× passive lysis buffer (PLB) was prepared using 5×PLB (Dual-Luciferase Reporter Assay System, Promega® E1960), diluting with H2O. Assay plates prepared were removed from the incubator and the growth media removed by aspiration.

[8] = average (e.g. geometric mean) where more than one data point, read-out: ERK5 IC50
[9] = value ± spread, second part of table, read-out: ERK5 IMAP IC50

T1 sequence (Q13164 whole entry): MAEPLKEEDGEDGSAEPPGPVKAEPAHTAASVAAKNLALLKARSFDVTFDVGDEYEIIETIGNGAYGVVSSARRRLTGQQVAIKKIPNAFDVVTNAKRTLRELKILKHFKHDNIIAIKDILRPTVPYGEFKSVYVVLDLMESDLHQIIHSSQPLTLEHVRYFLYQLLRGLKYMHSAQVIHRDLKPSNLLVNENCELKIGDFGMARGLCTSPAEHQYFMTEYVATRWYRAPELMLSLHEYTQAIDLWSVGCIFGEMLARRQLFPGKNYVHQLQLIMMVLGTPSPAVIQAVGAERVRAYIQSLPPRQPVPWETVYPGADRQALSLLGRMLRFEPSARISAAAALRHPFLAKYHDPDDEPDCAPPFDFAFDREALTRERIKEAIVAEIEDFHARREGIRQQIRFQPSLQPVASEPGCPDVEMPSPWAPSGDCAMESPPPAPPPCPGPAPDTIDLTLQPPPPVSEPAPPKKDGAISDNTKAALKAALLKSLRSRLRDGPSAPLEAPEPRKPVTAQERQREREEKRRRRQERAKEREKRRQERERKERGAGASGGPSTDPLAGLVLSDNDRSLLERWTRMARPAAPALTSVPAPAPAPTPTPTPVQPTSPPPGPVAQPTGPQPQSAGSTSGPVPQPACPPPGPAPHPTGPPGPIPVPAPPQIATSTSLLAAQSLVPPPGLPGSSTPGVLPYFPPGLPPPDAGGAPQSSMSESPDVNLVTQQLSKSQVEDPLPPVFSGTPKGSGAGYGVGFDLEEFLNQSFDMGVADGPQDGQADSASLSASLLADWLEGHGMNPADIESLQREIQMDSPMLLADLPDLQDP

| SMILES | IC50 (ERK5; [8]) [µM] | IC50 [1] [µM] | IC50 (ERK5; [9]) [µM] | IC50 [3] [µM] | further results |
| --- | --- | --- | --- | --- | --- |
| O=C(Nc1ccc(OC2CCNCC2)nc1)c1cc(C(=O)c2c(Cl)ccc(Cl)c2F)c[nH]1 [Example 109, 4-(3,6-Dichloro-2-fluorobenzoyl)-N-(6-(piperidin-4-yloxy)pyridin-3-yl)-1H-pyrrole-2-carboxamide] | 0.0108 | 0.05 |  |  | IC50 [2]: 0.092 µM |
| Cn1cc(NC(=O)c2cc(C(=O)c3ccccc3F)c[nH]2)cn1 [Example 287, 4-(2-Fluorobenzoyl)-N-(1-methyl-1H-pyrazol-4-yl)-1H-pyrrole-2-carboxamide] |  |  | 7.55 ± 0.3 | 3.2 |  |
| Cc1cccc(F)c1C(=O)c1c[nH]c(C(=O)Nc2cnn(C)c2)c1 [Example 286, 4-(2-Fluoro-6-methylbenzoyl)-N-(1-methyl-1H-pyrazol-4-yl)-1H-pyrrole-2-carboxamide] |  |  | 7.07 ± 0.02 | 2.48 |  |
| CCOc1cc(N2CCC(O)CC2)ccc1Nc1ncc2c(n1)N(C)c1ccccc1C(=O)N2C [XMD8-92] |  |  |  |  | anti-proliferative activity [4]: modest anti-proliferative activity; tolerability in mice [5]: well tolerated; blood vessel formation [6]: completely abrogated blood vessel formation; tumour growth (human and murine tumour; human and murine tumours in mice): pronounced retardation of both human and murine tumour growth; inhibition of tumour ERK5 (human and murine tumour; mice): inhibited tumour ERK5 |
| Cn1cc(NC(=O)c2cc(C(=O)c3c(F)cccc3F)c[nH]2)cn1 [Example 285, 4-(2,6-Difluorobenzoyl)-N-(1-methyl-1H-pyrazol-4-yl)-1H-pyrrole-2-carboxamide] |  |  | 1.56 ± 0.05 | 0.671 |  |
| CCN(CC)CCNc1ncc(NC(=O)c2cc(C(=O)c3c(Cl)ccc(Cl)c3F)c[nH]2)cn1 [Example 100, 4-(3,6-Dichloro-2-fluorobenzoyl)-N-(2-((2-(diethylamino)ethyl)amino)pyrimidin-5-yl)-1H-pyrrole-2-carboxamide] | 0.0193 | 0.49 |  |  | IC50 [2]: 0.151 µM |
| COc1ccc(Cl)c(C(=O)c2c[nH]c(C(=O)Nc3cccnc3)c2)c1F [Example 72, 4-(6-chloro-2-fluoro-3-methoxybenzoyl)-N-(pyridin-3-yl)-1H-pyrrole-2-carboxamide] | 0.0908 | 1.9 |  |  | IC50 [7]: 2.98 µM |
